# From patent US20060019971A1, “Treatment of cardiovascular disease with inhibitors of p38 kinase” (priority 2003, published 2006)
# Entries after “also recorded” stand apart in the source; their conditions may differ.
# What was measured:
# p38 MAP kinase = biological target: T1, p38 MAP kinase (Homo sapiens, UniProt Q16539); assay: p38 MAP kinase phosphorylation assay (similar to Kumar); type: biochemical; conditions: assay similar to the phosphorylation assay (Kumar)
# T1 construct: expressed in transfected cells; kinase immunoprecipitated from lysates
# T1 sequence (Q16539 whole entry): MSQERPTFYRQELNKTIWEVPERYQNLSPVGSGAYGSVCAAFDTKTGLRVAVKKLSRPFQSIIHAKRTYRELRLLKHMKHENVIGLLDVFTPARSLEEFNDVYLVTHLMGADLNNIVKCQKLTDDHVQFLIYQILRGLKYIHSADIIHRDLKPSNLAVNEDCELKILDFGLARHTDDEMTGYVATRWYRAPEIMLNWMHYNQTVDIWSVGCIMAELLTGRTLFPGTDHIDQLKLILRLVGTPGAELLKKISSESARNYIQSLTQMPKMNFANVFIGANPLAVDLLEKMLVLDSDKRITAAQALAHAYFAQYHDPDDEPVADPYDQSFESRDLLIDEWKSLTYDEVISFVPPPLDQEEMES
# Procedure: Alternative assays involving in vitro analysis of potential inhibitors include those where cells (HeLa) transfected with DNA coding for relevant kinases can be activated with substances such as sorbitol, IL-1, TNF, or PMA (phorbol myristate acetate). After immunoprecipitation of cell lysates, equal aliquots of immune complexes of the kinases are pre-incubated for an adequate time with a specific concentration of the potential inhibitor followed by addition of kinase substrate buffer mix containing labeled ATP and GST-ATF2 or MBP. After incubation, kinase reactions are ceased by the addition of SDS loading buffer. Phosphorylated substrate is resolved through SDS-PAGE and visualized and quantitated in a phosphorimager. Both p38 regulation, in terms of phosphorylation, and IC50 values can be determined by quantitation. See, for example Kumar,S., McDonnell, P., Gum, R., Hand, A., Lee, J., and Young, P. (1997) Biochem. Biophys. Res. Commun. 235, 533-538.
# [1] = system: IL-8 secretion from HPBMCs; assay: IL-8 secretion from HPBMCs, ELISA; type: cell-based, human; conditions: 1 μM SD pre-treatment, all the conditions (control, CRP, FCS, CRP plus FCS), 6 hours
# Procedure: 8×10^5 HPBMCs were plated in 96-well. After 1 hour medium was removed and cells were incubated with or without 10 μg/ml of purified human CRP in serum-free RPMI 1640. In parallel experiments cells were treated with 10% FCS together with the CRP treatment. For the p38 antagonism, p38 inhibitor was added to a final concentration of 1 μM in the parallel treatment. After 6 hours conditioned medium were collected and IL-6 and IL-8 levels were determined by ELISA. […] 5×10^6 HPBMCs were plated in 6-well. After 1 hour medium was removed and cells were treated with vehicle or 1 μM p38 inhibitor in RPMI 1640 medium. After 1 hour cells were stimulated with 10% FCS only or 10 μg/ml CRP plus 10% FCS. After 2 hours RNA was extracted from the cells and IL-8 expression level was determined by real-time PCR as described in the Experimental section.
# Cryopreserved human peripheral blood monocytes (HPBMCs, from Biowitker, Walkersvill, Md.) were thawed and washed twice in RPMI 1640. Cells were plated in tissue culture plates and incubated in 5% CO2 at 37 C. […]
# Conditioned media from the treated cells were collected (6 to 20 hrs), and the level of secreted interleukin 6 (IL-6), interleukin 1 beta (IL-1 β), tumor necrosis factor alpha (TNFα), and interleukin 8 (IL-8) was determined by ELISA according to the manufacturer's instruction (Biosource International, Camarillo, Calif.). […]
# TNFα mRNA in HPBMCs = assay: TNFα gene expression in HPBMCs, real-time PCR; type: cell-based, human; conditions: 2 hours
# Procedure: 5×10^6 HPBMCs were plated in 6-well. After 1 hour medium was removed and cells were treated with vehicle or 1μM p38 inhibitor in RPMI 1640 medium. After 1 hour cells were stimulated with 10% FCS only or 10 μg/ml CRP plus 10% FCS. After 6 hours conditioned medium was collected and IL-1b and TNFa levels were determined by ELISA. […] 5×10^6 HPBMCs were plated in 6-well. After I hour medium was removed and cells were treated with vehicle or […] p38 inhibitor in RPMI 1640 medium. After 1 hour cells were stimulated with 10% FCS only or 10 μg/ml CRP plus 10% FCS. After 2 hours RNA was extracted from the cells and TNFa (c) and IL-1b (d) expression levels were determined by real-time PCR as described in the Experimental section. […]
# (§1) RNA was extracted from the cells using Qiagen RNA extraction kit according to the manufacturer's instruction. The expression of pro-inflammatory genes IL-1β, IL-6, IL-8, TNFα, COX-2, ET-1, TF were assessed by real-time PCR. […]
# (§2) Real-time RT-PCR was performed in a two-step manner. cDNA synthesis and real-time detection were carried out in a PTC-100™ Thermal Cycler (MJ Research Inc, Waltham, Mass.) and an ABI Prism™ 7700 Sequence Detection System (Applied Biosystems, Foster City, Calif.), respectively. […] Relative quantitation of gene expression was performed using the relative standard curve method. […]
# ET-1 mRNA in HPBMCs = assay: ET-1 gene expression in HPBMCs, real-time PCR; type: cell-based, human; conditions: 6 hours
# Procedure: 5×10^6 HPBMCs were plated in 6-well. After 1 hour medium was removed and cells were treated with vehicle or 1 μM P38 INHIBITOR in RPMI 1640 medium. After 1 hour cells were stimulated with 10% FCS only or 10 μg/ml CRP plus 10% FCS. After 6 hours RNA was extracted from the cells and ET-1 gene expression level was determined by real-time PCR as described in the Experimental section.
# Cryopreserved human peripheral blood monocytes (HPBMCs, from Biowitker, Walkersvill, Md.) were thawed and washed twice in RPMI 1640. Cells were plated in tissue culture plates and incubated in 5% CO2 at 37 C. After 1 hr media were removed and cells were treated with various treatments. After 2 to 20 hours conditioned media and/or cell lysates were collected for the analyses of secreted cytokines, protein or mRNA expression. 10 μg/ml of purified human CRP (Calbiochem, San Diego, Calif.) was used in most of the treatments. In some experiments fetal calf serum (FCS from ATCC) was added to a final concentration of 10% together with CRP. In the examples provided herein, including those assessing the effects of p38 antagonism, cells were pre-treated with SD, a p38 small molecule inhibitor (Compound 162 in Table A) for 1 hour prior to CRP treatment as described above. In a parallel series of experiments, the effect of vehicle (DMSO) was tested. For TaqMan analyses of various gene expression cells were lysed in ice-cold RLT lysis buffer (Qiagen, Valencia, Calif.) and the lysates were kept in −80° C. until the analyses. […]
# as §1, §2
smiles,measurement,setting,value
C[C@@H]1CN(Cc2ccc(F)cc2)[C@@H](C)CN1C(=O)c1cc2c(C(=O)C(=O)N(C)C)c[nH]c2cc1Cl [Compound 162],p38 MAP kinase activity,p38 MAP kinase,exhibit p38 MAP kinase activity
same,inhibition of IL-8 secretion,[1],almost completely inhibited
same,inhibition of CRP augmented TNFα transcription,TNFα mRNA in HPBMCs; 1 μM SD,completely attenuated
same,"FCS induced TNFα transcription, sensitivity to SD treatment",TNFα mRNA in HPBMCs; 10% FCS,sensitive
same,inhibition of CRP-invoked ET-1 mRNA expression,"ET-1 mRNA in HPBMCs; 1 μM SD pre-treatment, listed as SD",almost completely blocked; also recorded: almost completely inhibited
same,inhibition of FCS induced ET-1 mRNA,ET-1 mRNA in HPBMCs; 1 μM SD,completely inhibited
